The subject of test [1] is P-selectin ligand activity of CLA+ T-lymphocytes. As to the kind of experiment: Parallel-plate flow chamber, CLA+ T-cell tethering and rolling on P-selectin chimera. It counts as cell-based, human. As for the experimental part: To analyze the affects of 4-F-GlcNAc on the function of CLA on human T-cells, we examined the ability of 4-F-GlcNAc-treated (0.05, 0.1, 0.5 mM for 30 hrs) CLA-+ T-cells cultures to engage with immobilized E- and P-selectin chimera in the parallel-plate flow chamber. As described for flow cytometric analyses (Example 13), cells were first pretreated with neuraminidase to remove terminal sialic acid residues required for HECA-452 reactivity and for E- and P-selectin ligand activity of CLA. This approach allowed for the assessment on de novo synthesized CLA molecules.
Tethering and rolling of human T-cells on recombinant human E- and P-selectin-Ig chimera (provided by Dr. Robert Fuhlbrigge, Harvard Medical School) and human L-selectin-Ig (gift from Dr. Ray Camphausen, Wyeth/Genetics Institute, Inc., Cambridge, Mass.) were analyzed in the parallel-plate flow chamber under physiologic shear stress conditions (3). To prepare E- and P-selectin-Ig chimera spots, protein A (300 μg/15 μl 0.1M NaHCO3) was adsorbed to Ten-twenty-nine™ Petri dishes for 2 h at 37° C. Human serum albumin ([…] PBS) then added and incubated for 2 h at 37° C. to block non-specific binding sites. E-selectin-Ig (50 ng/50 μl PBS) or P-selectin-Ig (50 ng/50 μl PBS) solutions was pipetted directly over the pre-existing protein A spots for 18 h at 4° C. To prepare L-selectin-Ig spots, L-selectin-Ig (300 ng/15 μl PBS) or isotype control human IgG (300 ng/15 μl) were adsorbed directly to plastic (non-protein A-coated) for 18 h at 4° C. and blocked in 100% FBS for 2 h at 4° C.
CLA^+ T-cells or freshly isolated PBL were treated with neuraminidase and metabolic glycosylation inhibitors or with protease (bromelain) as described above, washed twice in HBSS, suspended at 2×10^6/ml in HBSS/10 mM HEPES/2 mM CaCl2 (H/H/Ca^++) and infused into the chamber over selectin chimeras. Protease treatment was performed to control for residual E-selectin activity not attributable to the expression of CLA on a protein scaffold. Cell tethering was permitted at 0.6 dynes/cm^2 for 1 min, then stepwise increments in shear stress every 15 sec were employed to a final shear stress level of 60 dynes/cm^2. The number of cells rolling/viewing field (at 100× magnification) was quantified at each level of shear stress in triplicates for a minimum of three experiments. […] Negative control experiments were performed in parallel, wherein cell binding was examined in H/H adhesion assay medium containing 5 mM EDTA as well as assaying cell binding to human IgG isotype control.
Utilizing the parallel-plate flow chamber under physiologic shear stress conditions, E-, P- and L-selectin ligand activities of human CLA^+ T-cells treated were analyzed in an identical manner as cells prepared for Western blotting and autoradiography studies.

Test [2] concerns (Galβ1,4GlcNAc)n (LEA staining). As to the kind of experiment: Lectin blot with LEA of CLA+ T-cell lysates. Format: cell-based, human. The conditions noted are these: compared with PBS or GlcNAc treatments. As to the method: (§1) For lectin blotting, cell lysates (25 μg/spot) were spotted onto methanol-permeabilized PVDF membrane and blocked in FBS for 1 h at RT. Blots were then probed with AP-Canavalia ensiformis agglutinin (ConA) (2.0 μg/ml PBS; specificity: α-mannose), AP-Triticum vulgaris (Wheat germ) agglutinin (WGA) (0.5 μg/ml PBS; specificity: terminal GlcNAc or GlcNAcβ1,4GlcNAc) or AP-Lycopersicon esculentum (tomato lectin) agglutinin (LEA) (1.0 μg/ml PBS; specificity: (Galβ1,4GlcNAc)n) for 1 h at RT (All lectins from EY Labs., Inc., San Mateo, Calif.). After washing 3× in PBS/0.1% Tween-20 and 1× in PBS (10 min each), blots were developed with Western Blue®.
(§2) To analyze and identify the glycan modifications on CLA^+ T-cells treated with 4-F-GlcNAc, lectin blotting experiments were performed with ConA (Specificity: α-mannose), WGA (Specificity: terminal GlcNAc or GlcNAcβ1,4GlcNAc) and LEA (Specificity: {Galβ1,4GlcNAc}n).

Test [3] concerns terminal GlcNAc or GlcNAcβ1,4GlcNAc (WGA staining). As to the kind of experiment: Lectin blot with WGA of CLA+ T-cell lysates. The conditions noted are these: compared with PBS or GlcNAc treatments. Format: cell-based, human. As for the experimental part:
as §1, §2

Test [4] relates to E-selectin ligand activity of murine Th1 cells. As to the kind of experiment: Flow chamber analysis of E-selectin binding on murine Th1 cells. It counts as cell-based, mouse. From the text:
CD4+ splenocytes were isolated from C57BL-6 mice by anti-murine CD4 L3T4 magnetic bead technology (Miltenyi Biotec) according to manufacturer's protocol. […] Culturing murine T helper cells in the presence of murine IL-12 and anti-murine IL-4 produces selectin binding Th1 cells by up-regulating FucTVII (69, 70) and core 2 enzyme (43–45, 71, 72), both critical for selectin ligand synthesis (i.e. decoration of PSGL-1 (67, 68)), and prevents the production of non-selectin binding Th2 cells (67–72). Th1 cells were also generated from mice deficient in α1,3 fucosyltransferase, FucTVII, and served as negative controls (33, 38, 40). Cells were harvested and re-plated at 2×10^6cells/ml on non-Ab coated plastic with murine IL-2 (20 ng/ml) in the presence or absence of murine IL-12 (10 ng/ml) and anti-murine IL-4 moAb 11B11 (10 μg/ml) for 48 h. […] Glycosylation inhibitors were added to cultures on day 6.5 for 30 hr, after first treating cells with neuraminidase (0.1 U/ml for 1 hr at 37° C.) to remove all cell surface terminal sialic acid resides and E and P-selectin ligand activity. Since selectin ligands are dependent on terminal sialic acid (α2,3 N-acetylneuraminic acid) for activity, this approach allowed for analysis of de novo synthesized selectin ligands in the presence of 0.05 mM 4-F-GlcNAc, N-glycan inhibitors, 0.23 mM swainsonine and 0.02 mM tunicamycin, and 1 mM GlcNAc (negative control).

[5] abbreviates: 30 hr after neuraminidase, 0.05 mM 4-F-GlcNAc, 0.23 mM swainsonine, 0.02 mM tunicamycin, 1 mM GlcNAc.

Like-named read-outs stand apart in the source and are kept apart here.

Consider `CC(=O)N[C@H]1C(OC(C)=O)O[C@H](COC(C)=O)[C@@H](F)[C@@H]1OC(C)=O` (stereo partly drawn) [4-F-GlcNAc, 2-acetamido-2-deoxy-1,3,6-tri-O-acetyl-4-deoxy-4-fluoro-D-glucopyranose], for which the “difference in cell rolling frequency on P-selectin chimera vs PBS recovery” value in test [1] (0.05 mM, p<0.001) was “statistically significant”. For the same molecule, the “rolling adhesions on P-selectin chimera” value in test [1] (at 2.0 dynes/cm^2, tunicamycin 0.02 mM, swainsonine 0.23 mM, 4-F-GlcNAc 0.05 mM, BAG 2.0 mM, p<0.01) is “significant reductions”. The “CLA+ T-cell tethering and rolling mediated by P-selectin” value in test [1] (neuraminidase then 0.1 and 0.5 mM for 30 hrs) is “completely abolished”. The “LEA staining of lysates” value in test [2] was “notably diminished”. The “WGA staining of lysates” value in test [3] is on record as “elevated”. For the same molecule, in test [4] (setting [5]), the “recovery of E-selectin ligand activity of Th1 cells” value is given as “completely inhibited”.
On to `CC(=O)N[C@H]1C(O)O[C@H](CO)[C@@H](O)[C@@H]1O` (some centres unmarked) [GlcNAc, N-acetylglucosamine], for which the “recovery of P-selectin ligand activity” value in test [1] (30 h following neuraminidase digestion, drug control) was above 80 % recovery. The “recovery of E-selectin ligand activity of Th1 cells” value in test [4] (setting [5]) was “no effect”.
In the case of `O[C@H]1[C@H]2[C@H](O)CCCN2C[C@H]1O` [swainsonine], in test [1], the “rolling adhesions on P-selectin chimera” value is recorded as “no effect”. Further, the “recovery of E-selectin ligand activity of Th1 cells” value in test [4] is “no effect”.
Take tunicamycin: the “rolling adhesions on P-selectin chimera” value in test [1] is recorded as “significant reductions”. In test [2], the “LEA staining of lysates” value is “eliminated”. The “WGA staining of lysates” value in test [3] is recorded as “eliminated”. Moreover, in test [4], the “recovery of E-selectin ligand activity of Th1 cells” value was “completely inhibited”.

Values taken from patent US7098195B2, “Fluorinated glucosamine analogs useful for modulating post-translational glycosylations on cells” (Health Research, Inc., priority 2001, dated 2006).
